Measurements: patent US9593140B2, “Antibacterial tylosin derivatives and methods for their preparation” (Bayer Intellectual Property GmbH, priority 2011, dated 2017)
Converted amounts (≈) assume the structure as drawn. Values belong to the compound of their own block, whether it stands above or below them.

Legend:
Format in all cases: cell-based
[1] = test system: Mannhemia hemolytica KB345; assay: Paper disc assay, M. hemolytica KB345 (Tilmicosin-sensitivity strain); conditions: for Inhibition zone (mm): Table 4
Procedure: (§1) (1) Antibacterial Activities Against Mannheimia and Pasteurella were Determined by the Following Steps:
(§2) 1) M. hemolytica KB345 (Tilmicosin-sensitivity strain) and M. hemolytica KB346 (Tilmicosin-low sensitivity strain) were provided. KB 345 strain stored at −80° C. was seeded to BHIB agar medium (10 mL) by using Microbank beads (Pro-Lab) and platinum nail. After statically incubating the KB 345 strain for 24 hours at 37° C., it was seeded to maintaining slant BHIB agar medium (7 mL) by using platinum loop, further statically incubated for 24 hours at 37° C. to obtain slant. One platinum loop of KB 345 strain stored at the slant was inoculated into a large test tube charged with BHIB liquid medium (10 mL) and then incubated for 24 hours at 37° C. with shaking.
(§3) 2) A paper disc (ADVANTEC, Φ:6 mm) was impregnated with a solution of test compound and dried under reduced pressure.
(§4) 3) To a melted BHIB agar medium was inoculated 1% of the broth obtained from step 1) above to prepare a test plate. After the medium set, the paper disc prepared in step 2) above was put on the plate and it was incubated at 37° C.
(§5) 4) After one day, the inhibition zone diameter and clarity (A to E) were determined.

[2] = test system: Bacillus subtilis ATCC6633; assay: Paper disc assay, Bacillus subtilis (S)
Procedure: (§6) (2) Antibacterial activities against other bacteria were determined with Micrococcus luteus ATCC9341 (1), Bacillus subtilis […] (s), Escherichia coli NIHJ (c), Xanthomonas campestris KB88 (X), Mucor racemosus IFO 4581 (Mu) and Candida albicans ATCC 64548 (Ca).
(§7) Bacillus subtilis ATCC6633 was incubated in Davis synthetic medium and then the seed broth was combined with the medium in the ratio of 1:99 to obtain a test plate. Micrococcus luteus ATCC9341, Escherichia coli NIHJ and Xanthomonas campestris KB88 were respectively incubated in Nutrient agar medium and inoculated at 0.2%, 0.5% and 1.0%. Mucor racemosus IFO 4581 and Candida albicans ATCC 64548 were respectively incubated in GY agar medium and then inoculated at 0.3% and 0.2%.
(§8) A paper disc (ADVANTEC, Φ:6 mm) was impregnated with a solution of test compound and dried under reduced pressure. The paper disc was put on the test plate and it was incubated for 24 hours at 37° C. After incubation, the inhibition zone diameter and clarity (A to E) were determined.

[3] = test system: Micrococcus luteus ATCC9341; assay: Paper disc assay, Micrococcus luteus (l)
Procedure: as §6, §7, §8

[4] = test system: Xanthomonas campestris KB88; assay: Paper disc assay, Xanthomonas campestris (X)
Procedure: as §6, §7, §8

[5] = test system: Mannheimia Haemolytica, 3 isolates; assay: Minimal inhibitory concentrations, cattle pathogen isolates; conditions: Mannheimia haemolytica
Procedure: (§9) The antibacterial activity by the compounds of the present invention may be measured using a number of assays available in the art. […] Minimal inhibitory concentrations (MICs) were determined against the most prevalent pathogens in cattle (Mannheimia Haemolytica, 3 isolates) and swine (A. pleuropneumoniae, 6 isolates).The results are summarized in Table 7.

[6] = test system: A. pleuropneumoniae, 6 isolates; assay: Minimal inhibitory concentrations, swine pathogen isolates
Procedure: as §9

[7] = test system: Mannhemia hemolytica KB346; assay: Paper disc assay, M. hemolytica KB346 (Tilmicosin-low sensitivity strain); conditions: Table 5
Procedure: as §1, §2, §3, §4, §5
For KB346 strain, the same procedures were repeated.

[8] = 24 h, Table 2, 100 mg/6 mm disk

SMILES: CC[C@H]1OC(=O)C[C@@H](O)[C@H](C)[C@@H](O[C@@H]2OC(C)[C@@H](O)C(N(C)C)C2O)[C@@H](CCn2cc(-c3ccc(N(C)C)cc3)nn2)C[C@@H](C)C(=O)/C=C/C(C)=C/[C@@H]1CO[C@@H]1OC(C)[C@@H](O)C(OC)C1OC (stereo partly shown) [YT29, 20-(4-(4-dimethylaminophenyl)-1H-1,2,3-triazol-1-yl)-20-deoxodesmycosin]
- zone of inhibition at 3 mg/disc ([1]; 24 h, Table 2, 3 mg/6 mm disk): 13.5 mm
- zone of inhibition at 10 mg/disc ([1]; 24 h, Table 2, 10 mg/6 mm disk): 16 mm
- zone of inhibition at 30 mg/disc ([1]; 24 h, Table 2, 30 mg/6 mm disk): 17.5 mm
- zone of inhibition at 100 mg/disc [1, 8]: 20 mm
- Inhibition zone (mm) ([2]; 0.1 mg/6 mm disc): 7 mm
- Inhibition zone (mm) ([2]; 1 mg/6 mm disc): 10 mm
- Inhibition zone (mm) ([2]; 10 mg/6 mm disc): 15 mm
- Inhibition zone (mm) ([3]; 0.1 mg/6 mm disc): 11 mm
- Inhibition zone (mm) ([3]; 1 mg/6 mm disc): 19.5 mm
- Inhibition zone (mm) ([3]; 10 mg/6 mm disc): 25.5 mm
- Inhibition zone (mm) ([4]; 0.1 mg/6 mm disc): 7 mm
- Inhibition zone (mm) ([4]; 1 mg/6 mm disc): 15 mm
- Inhibition zone (mm) ([4]; 10 mg/6 mm disc): 24 mm

SMILES: CC[C@H]1OC(=O)C[C@@H](O)[C@H](C)[C@@H](O[C@@H]2OC(C)[C@@H](O)C(N(C)C)C2O)[C@@H](CCn2cc(CO)nn2)C[C@@H](C)C(=O)/C=C/C(C)=C/[C@@H]1CO[C@@H]1OC(C)[C@@H](O)C(OC)C1OC (stereo partly shown) [YT37, 20-(4-(methanol)-1H-1,2,3-triazol-1-yl)-20-deoxodesmycosin]
- zone of inhibition at 30 mg/disc ([1]; 24 h, Table 2, 30 mg/6 mm disk): 9 mm
- zone of inhibition at 100 mg/disc [1, 8]: 12.5 mm

- MIC ([6]; Actinobacillus pleuropneumoniae, pleuropneumoniae isolate 1): > 16 µg/mL
- MICs ([6]; pleuropneumoniae isolate 2): >16 µg/mL
- MICs ([6]; pleuropneumoniae isolate 3): >16 µg/mL
- MICs ([6]; pleuropneumoniae isolate 4): >16 µg/mL
- MICs ([6]; pleuropneumoniae isolate 5): >16 µg/mL
- MICs ([6]; pleuropneumoniae isolate 6): >16 µg/mL
SMILES: CC[C@H]1OC(=O)C[C@@H](O)[C@H](C)[C@@H](O[C@@H]2O[C@H](C)C(O)C(N(C)C)C2O)[C@@H](CC=O)C[C@@H](C)C(=O)/C=C/C(C)=C/[C@@H]1Cn1cc(-c2ccc(-c3ccccc3)cc2)nn1 (stereo partly shown) [YT104, 23-(4-biphenyl-1H-1,2,3-triazol-1-yl)-23-Deoxy-5-O-mycaminosyltylonolide]
- MIC ([5]; M. haemolytica isolate 1): 8 µg/mL (≈ 9.99 µM)
- MIC ([5]; M. haemolytica isolate 2): 4 µg/mL (≈ 4.99 µM)
- MIC ([5]; M. haemolytica isolate 3): 8 µg/mL (≈ 9.99 µM)

SMILES: CC[C@H]1OC(=O)C[C@@H](O)[C@H](C)[C@@H](O[C@@H]2O[C@H](C)[C@@H](O)[C@H](N(C)C)[C@H]2O)[C@@H](CC=O)C[C@@H](C)C(=O)/C=C/C(C)=C/[C@@H]1CO [YT106, 5-O-mycaminosyltylonolide]
- Inhibition zone (mm) ([1]; 10 mg/6 mm disk): 8.5 mm
- Inhibition zone (mm) ([1]; 30 mg/6 mm disk): 12.5 mm
- Inhibition zone (mm) ([1]; 100 mg/6 mm disk): 15.0 mm
- Inhibition zone (mm) ([7]; 10 mg/6 mm disk): 9.0 mm
- Inhibition zone (mm) ([7]; 30 mg/6 mm disk): 13.0 mm
- Inhibition zone (mm) ([7]; 100 mg/6 mm disk): 17.0 mm

SMILES: CCC1OC(=O)CC(O)C(C)C(OC2OC(C)C(O)C(N(C)C)C2O)C(CC=O)CC(C)C(=O)C=CC(C)=CC1CN=[N+]=[N-] (stereo not shown) [YT107, 23-azido-23-deoxo-5-O-mycaminosyltylonolide]
- Inhibition zone (mm) ([1]; 3 mg/6 mm disk): 12.0 mm
- Inhibition zone (mm) ([1]; 10 mg/6 mm disk): 16.0 mm
- Inhibition zone (mm) ([1]; 30 mg/6 mm disk): 18.0 mm
- Inhibition zone (mm) ([1]; 100 mg/6 mm disk): 21.5 mm
- Inhibition zone (mm) ([7]; 30 mg/6 mm disk): 10.5 mm
- Inhibition zone (mm) ([7]; 100 mg/6 mm disk): 15.0 mm

SMILES: CC[C@H]1OC(=O)C[C@@H](O)[C@H](C)[C@@H](O[C@@H]2O[C@H](C)[C@@H](O)[C@H](N(C)C)[C@H]2O)[C@@H](CCn2cc(-c3ccccc3)nn2)C[C@@H](C)C(=O)/C=C/C(C)=C/[C@@H]1CN=[N+]=[N-] [YT114, 20-(4-phenyl-1H-1,2,3-triazol-1-yl)-20-deoxo-23-azido-23-deoxy-5-O-mycaminosyltylonolide]
- Inhibition zone (mm) ([1]; 3 mg/6 mm disk): 11.5 mm
- Inhibition zone (mm) ([1]; 10 mg/6 mm disk): 17.5 mm
- Inhibition zone (mm) ([1]; 30 mg/6 mm disk): 21.0 mm
- Inhibition zone (mm) ([1]; 100 mg/6 mm disk): 21.0 mm
